From ChEMBL document CHEMBL1201862, “PubChem BioAssay data set” (2004)
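Cultured in 96-well plates, cells were exposed to test compound for 48 hours across five concentrations. Abbreviation: GI50, concentration required for 50% inhibition of growth.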 Activity calls are given as the source filed them. No stated cut-off is given here; in the data, active = GI50 up to about 1.1 µM and inactive = higher.

What was measured:
Test in all cases: DTP human tumour cell line panel, 48 h
786-0 = tested on: 786-0
A498 = tested on: A498
A549 = tested on: A549
ACHN = tested on: ACHN
BT-549 = tested on: BT-549
CAKI-1 = tested on: CAKI-1
CCRF-CEM = tested on: CCRF-CEM
COLO 205 = tested on: COLO 205
DU-145 = tested on: DU-145
EKVX = tested on: EKVX
HCC 2998 = tested on: HCC 2998
HCT-116 = tested on: HCT-116
HCT-15 = tested on: HCT-15
HL-60 = tested on: HL-60
HOP-62 = tested on: HOP-62
HOP-92 = tested on: HOP-92
HT-29 = tested on: HT-29
Hs-578T = tested on: Hs-578T
IGROV-1 = tested on: IGROV-1
K562 = tested on: K562
KM12 = tested on: KM12
LOX IMVI = tested on: LOX IMVI
M14 = tested on: M14
MCF7 = tested on: MCF7
MDA-MB-231 = tested on: MDA-MB-231
MDA-MB-435 = tested on: MDA-MB-435
MDA-N = tested on: MDA-N
MOLT-4 = tested on: MOLT-4
Malme-3M = tested on: Malme-3M
NCI-H226 = tested on: NCI-H226
NCI-H23 = tested on: NCI-H23
NCI-H460 = tested on: NCI-H460
NCI-H522 = tested on: NCI-H522
NCI/ADR-RES = tested on: NCI/ADR-RES
OVCAR-3 = tested on: OVCAR-3
OVCAR-4 = tested on: OVCAR-4
OVCAR-5 = tested on: OVCAR-5
OVCAR-8 = tested on: OVCAR-8
PC-3 = tested on: PC-3
RPMI-8226 = tested on: RPMI-8226
RXF 393 = tested on: RXF 393
SF-268 = tested on: SF-268
SF-295 = tested on: SF-295
SF-539 = tested on: SF-539
SK-MEL-28 = tested on: SK-MEL-28
SK-MEL-2 = tested on: SK-MEL-2
SK-MEL-5 = tested on: SK-MEL-5
SK-OV-3 = tested on: SK-OV-3
SN12C = tested on: SN12C
SNB-19 = tested on: SNB-19
SNB-75 = tested on: SNB-75
SR = tested on: SR
SW-620 = tested on: SW-620
T47D = tested on: T47D
TK-10 = tested on: TK-10
U-251 = tested on: U-251
UACC-257 = tested on: UACC-257
UACC-62 = tested on: UACC-62
UO-31 = tested on: UO-31

## CC1=NN(C(=O)CC(=O)Nc2ccccc2C)C(=O)C1/N=N\c1ccc(S(=O)(=O)c2ccc(/N=N/C3C(=O)N(C(=O)CC(=O)Nc4ccccc4C)N=C3C)cc2)cc1 (centres undefined)
786-0
  GI50: > 100 µM (inactive)
A498
  GI50: > 100 µM (inactive)
A549
  GI50: > 100 µM (inactive)
ACHN
  GI50: > 100 µM (inactive)
BT-549
  GI50: > 100 µM (inactive)
CAKI-1
  GI50: > 100 µM (inactive)
CCRF-CEM
  GI50: > 100 µM (inactive)
COLO 205
  GI50: > 100 µM (inactive)
DU-145
  GI50: > 100 µM (inactive)
EKVX
  GI50: > 100 µM (inactive)
HCC 2998
  GI50: > 100 µM (inactive)
HCT-116
  GI50: > 100 µM (inactive)
HCT-15
  GI50: > 100 µM
HL-60
  GI50: > 100 µM (inactive)
HOP-62
  GI50: > 100 µM (inactive)
HOP-92
  GI50: > 100 µM (inactive)
HT-29
  GI50: > 100 µM (inactive)
Hs-578T
  GI50: 85.9 µM (inactive)
IGROV-1
  GI50: 68.9 µM (inactive)
K562
  GI50: > 100 µM (inactive)
KM12
  GI50: > 100 µM (inactive)
LOX IMVI
  GI50: > 100 µM (inactive)
M14
  GI50: > 100 µM (inactive)
MCF7
  GI50: > 100 µM (inactive)
MDA-MB-231
  GI50: > 100 µM (inactive)
MDA-MB-435
  GI50: > 100 µM (inactive)
MDA-N
  GI50: > 100 µM (inactive)
MOLT-4
  GI50: > 100 µM (inactive)
Malme-3M
  GI50: > 100 µM (inactive)
NCI-H226
  GI50: > 100 µM (inactive)
NCI-H23
  GI50: > 100 µM (inactive)
NCI-H460
  GI50: > 100 µM (inactive)
NCI-H522
  GI50: 46 µM (inactive)
NCI/ADR-RES
  GI50: > 100 µM (inactive)
OVCAR-3
  GI50: > 100 µM (inactive)
OVCAR-4
  GI50: > 100 µM (inactive)
OVCAR-5
  GI50: > 100 µM (inactive)
OVCAR-8
  GI50: 74.6 µM (inactive)
PC-3
  GI50: > 100 µM (inactive)
RPMI-8226
  GI50: > 100 µM (inactive)
RXF 393
  GI50: > 100 µM (inactive)
SF-268
  GI50: > 100 µM (inactive)
SF-295
  GI50: > 100 µM (inactive)
SF-539
  GI50: > 100 µM (inactive)
SK-MEL-28
  GI50: > 100 µM (inactive)
SK-MEL-2
  GI50: > 100 µM (inactive)
SK-MEL-5
  GI50: 62.2 µM (inactive)
SK-OV-3
  GI50: > 100 µM (inactive)
SN12C
  GI50: > 100 µM (inactive)
SNB-19
  GI50: > 100 µM (inactive)
SNB-75
  GI50: > 100 µM (inactive)
SR
  GI50: > 100 µM (inactive)
SW-620
  GI50: > 10 µM (inactive)
T47D
  GI50: > 100 µM (inactive)
TK-10
  GI50: > 100 µM (inactive)
U-251
  GI50: 67.9 µM (inactive)
UACC-257
  GI50: > 100 µM (inactive)
UACC-62
  GI50: > 100 µM (inactive)
UO-31
  GI50: > 100 µM (inactive)
